Article PMC3365038, “Optimization of a Novel Peptide Ligand Targeting Human Carbonic Anhydrase IX” (PLoS ONE, 2012)
Like-named read-outs stand apart in the source and are kept apart here. Peptide text beside a SMILES is read from it.

Key:
Serum stability assay = type: in vitro ADME; conditions: radiolabeled peptide 5 MBq in 500 µL human serum (Sigma Aldrich, H4522), 37°C, aliquots by radio-HPLC
Protocol: (§1) Radio-HPLC was performed on an Agilent 1100 HPLC system equipped with a radioactivity detector (GABI Star, Raytest GmbH, Straubenhardt, Germany) using a Chromolith Performance RP-18e column (100×3 mm; Merck AG Darmstadt, Germany) eluted with a linear gradient (eluent A: 0.1% TFA in water; eluent B: 0.1% TFA in acetonitrile; 0–30% B in 10 min, flow rate: 2 mL/min).
Metabolic stability was investigated in human serum (Sigma Aldrich, H4522). 5 MBq of radiolabeled peptide was dissolved in human serum (500 µL) and incubated at 37°C. The stability of the labeled peptide was monitored by analyzing aliquots (25 µl) via radio-HPLC at selected time points.

SKRC 52 cells [1] = experiment: In vitro (medium) stability of 125I-labeled peptide on SKRC 52 cells; type: in vitro ADME, human
Protocol: as §1
(§2) ^125I-labeled peptide was incubated at 37°C on SKRC 52 and BxPC3 cells. At time points varying from 10 min to 2 h aliquots were taken and centrifuged for 5 min at 13,000 rpm. The supernatant was analyzed by HPLC with H2O∶CH3CN, 0–30% in 10 min.

BxPC3 cells = experiment: In vitro (medium) stability of 125I-labeled peptide on BxPC3 cells; type: in vitro ADME, human; conditions: 37°C, 10 min to 2 h, supernatant by radio-HPLC
Protocol: as §1, §2

SKRC 52 cells [2] = type: binding, human; conditions: for inhibition of the radioligand binding: 10^−4 mol/L competitor concentration; for inhibition of the radioligand binding / binding inhibition: 125I-CaIX-P1-4-10 on SKRC 52 cells; for binding inhibition: competitor concentration of 10^−5 mol/L
Protocol: (§3) For binding experiments 5×10^5 SKRC 52 or BxPC3 cells were seeded into 6-well plates and cultivated in 3 mL of incubation medium at 37°C for 24 h. After cell blocking with RPMI 1640 (without FCS) containing 1% BSA, the medium was replaced with 1 mL of fresh medium (without FCS) containing 0.8–1.2×10^6 cpm of ^125I-labeled peptide and incubation was performed for time periods varying from 10 min to 2 h at 37°C. To determine specific versus nonspecific binding, the cells were incubated with unlabeled competitors at concentrations varying from 10^−4 to 10^−10 mol/L. Octreotide was used as negative control competitor. After incubation the medium was removed and the cells were washed three times with 1 mL ice cold PBS in order to remove the unbound radiolabeled peptide. Subsequently, the cells were lysed with 0.5 mL NaOH 0.3 mol/L and the radioactivity was measured with a γ-counter. Bound radioactivity was calculated as percentage applied dose per 10^6 cells. CA IX negative BxPC3 cells were used as negative control.

[3] = test system: CA IX positive human renal cell carcinoma SKRC 52 cells; experiment: In vitro binding of 125I-labeled peptides on SKRC 52 cells; conditions: for binding capacity on SKRC 52 cells compared to the native CaIX-P1 peptide: 125I-labeled fragments, result in words; for binding after 10 minutes compared to 30 minutes incubation: 125I-labeled peptides
Protocol: as §3

in vivo = experiment: in vivo; parameters: species or system Balb/c nu/nu mice; conditions: female, Balb/c nu/nu, mouse, iv, 1 MBq, total radioactivity, Tumor to organ ratio
Protocol: Organ distribution studies were performed in 9-week-old female Balb/c nu/nu mice, carrying subcutaneously transplanted SKRC 52 tumors. Animals were obtained from Charles River WIGA and housed in VentiRacks (BioZone Global). For tumor transplantation, SKRC 52 cells were grown to 90% confluence, harvested with PBS/ethylene diamine tetraacetic acid, resuspended in Falcon Matrigel-Matrix (BD) and kept on ice. 200 µl of Matrigel-Matrix cell suspension were injected subcutaneously into the anterior region of the mouse trunk and the tumors were grown to a size of 1.0 cm^3. ^131I-labeled CaIX-P1-4-10 was injected into the tail vein of the animals (approximately 1 MBq) and at 15 min, 60 min and 240 min after injection the animals were sacrificed. Tumor, blood and selected tissues (heart, spleen, liver, kidney, muscle, intestinum and brain) were removed, drained of blood, weighed and the radioactivity was measured in a γ-counter (LB 951G; Berthold Technologies). Also 3 aliquots of the tracer solution used for injection were measured. The organ uptake was calculated as percentage injected dose per gram tissue (% ID/g).

CC(C)C[C@H](NC(=O)[C@@H]1CCCN1C(=O)[C@@H](NC(=O)[C@H](Cc1c[nH]cn1)NC(=O)[C@@H](N)CC(N)=O)C(C)C)C(=O)N[C@@H](CO)C(=O)N1CCC[C@H]1C(=O)N[C@H](Cc1ccc(O)cc1)C(N)=O [CaIX-P1-4-10] (HELM PEPTIDE1{N.H.V.P.L.S.P.[dY].[am]}$$$$V2.0; N-terminus assumed)
Serum half life (Serum stability assay): 1.5 h
degradation in medium at 120 min (SKRC 52 cells [1]; 125I-labeled peptide on SKRC 52 cells, 37°C, 120 min incubation, supernatant by radio-HPLC): completely degraded
activity (intact radioligand) measured in medium (SKRC 52 cells [1]; 125I-labeled peptide on SKRC 52 cells, 37°C, after 60 min incubation, supernatant by radio-HPLC): 30%
degradation site in the sequence (SKRC 52 cells [1]; comparison of HPLC chromatograms of C-terminal fragments with SKRC 52 cell medium supernatants): degraded between ^6S and ^7P
radioligand degradation in medium on BxPC3 cells (BxPC3 cells): No radioligand degradation
inhibition of the radioligand binding (SKRC 52 cells [2]): over 95%
IC50 (SKRC 52 cells [2]; 24 h): 130 nM
binding inhibition (SKRC 52 cells [2]): about 95%
binding capacity on SKRC 52 cells compared to the native CaIX-P1 peptide [3]: almost six-fold binding

CC(C)C[C@H](NC(=O)[C@@H]1CCCN1C(=O)[C@@H](NC(=O)[C@H](Cc1c[nH]cn1)NC(=O)[C@@H](N)CC(N)=O)C(C)C)C(=O)N[C@@H](CO)C(=O)N1CCC[C@H]1C(=O)N[C@H](Cc1ccc(O)c(I)c1)C(N)=O [^131I-CaIX-P1-4-10] (HELM PEPTIDE1{N.H.V.P.L.S.P.[O=C([C@@H](Cc1ccc(O)c(I)c1)N[*:1])[*:2]].[am]}$$$$V2.0; N-terminus assumed)
tissue to tissue ratio at 0.25 h (in vivo; Blood): 0.63
tissue to tissue ratio at 1 h (in vivo; Blood): 0.69
tissue to tissue ratio at 4 h (in vivo; Blood): 0.67
tissue to tissue ratio at 0.25 h (in vivo; Brain): 13.9
tissue to tissue ratio at 1 h (in vivo; Brain): 14.9
tissue to tissue ratio at 4 h (in vivo; Brain): 15.1
tissue to tissue ratio at 0.25 h (in vivo; Heart): 1.63
tissue to tissue ratio at 1 h (in vivo; Heart): 2.09
tissue to tissue ratio at 4 h (in vivo; Heart): 1.84
tissue to tissue ratio at 0.25 h (in vivo; Kidney): 0.56
tissue to tissue ratio at 1 h (in vivo; Kidney): 0.73
tissue to tissue ratio at 4 h (in vivo; Kidney): 0.61
tissue to tissue ratio at 0.25 h (in vivo; Liver): 1.32
tissue to tissue ratio at 1 h (in vivo; Liver): 1.65
tissue to tissue ratio at 4 h (in vivo; Liver): 1.49
tissue to tissue ratio at 0.25 h (in vivo; Lung): 0.86
tissue to tissue ratio at 1 h (in vivo; Lung): 0.88
tissue to tissue ratio at 4 h (in vivo; Lung): 0.92
tissue to tissue ratio at 0.25 h (in vivo; Muscle): 3.36
tissue to tissue ratio at 1 h (in vivo; Muscle): 3.39
tissue to tissue ratio at 4 h (in vivo; Muscle): 2.53
tissue to tissue ratio at 0.25 h (in vivo; Spleen): 1.06
tissue to tissue ratio at 1 h (in vivo; Spleen): 1.39
tissue to tissue ratio at 4 h (in vivo; Spleen): 1.35

HVPLSPKy [CaIX-P1-5-12]
binding capacity on SKRC 52 cells compared to the native CaIX-P1 peptide [3]: significantly reduced binding activity

TNHVPLSPy [CaIX-P1-3-10, fragment representing the middle part of CaIX-P1 (TNHVPLSPy)]
binding capacity on SKRC 52 cells compared to the native CaIX-P1 peptide [3]: up to five-fold higher binding capacity
binding after 10 minutes compared to 30 minutes incubation [3]: higher after 10 minutes as compared to 30 minutes incubation

YNTNHVPL [CaIX-P1-1-8, 8-amino acid fragment of CaIX-P1 (YNTNHVPL)]
binding capacity on SKRC 52 cells compared to the native CaIX-P1 peptide [3]: significantly reduced binding activity

YNTNHVPLSPKY [CaIX-P1]
inhibition of the radioligand binding (SKRC 52 cells [2]): over 95%
binding inhibition (SKRC 52 cells [2]): about 80%
IC50 (SKRC 52 cells [2]; unlabeled competitor against 125I-CaIX-P1-4-10 on SKRC 52 cells, read-out: IC50): 1500 nM
binding after 10 minutes compared to 30 minutes incubation [3]: higher after 10 minutes as compared to 30 minutes incubation
